Source: patent publication US10806743B1, “Method of administering lactitol to reduce plasma concentration of lactitol” (Braintree Laboratories, Inc., priority 2017, dated 2020)

How the values were obtained:
[1] = chronic idiopathic constipation; cited from earlier work
[2] = Adverse events in Phase 3 constipation studies; type: in vivo, human; conditions: Phase 3 studies, doses required for effective treatment of constipation
From the text: An Adverse Event (AE) is any untoward medical occurrence associated with the use of a drug in humans, whether or not considered drug related. An AE can therefore be any unfavorable and unintended sign (including a clinically significant abnormal laboratory finding), symptom, or disease temporally associated with the use of a medicinal (investigational) product.
These adverse reactions were transient and subsided rapidly upon dose adjustment or cessation.

[3] = estimated; cited from earlier work
[4] = tested on: calcium absorption; conditions: rats, diet containing 5% lactitol, two weeks; cited from earlier work
[5] = tested on: plasma glucose; conditions: 25 grams, eight healthy male volunteers; cited from earlier work
[6] = Fed v. fasted administration of lactitol: plasma lactitol pharmacokinetics (LC-MS/MS); type: in vivo, human
Method: A study was performed to determine the effects of food on absorption of lactitol. Sixteen subjects (8 males and 8 females) were randomized to either Sequence A (fed/fasted) and the other half to Sequence B (fasted/fed) on Day 1 prior to dosing. Subjects returned for Day 8 dosing, 7 days following dose at Day 1, to receive study drug following the opposite food sequence, have pharmacokinetic samples collected and safety procedures performed. A standard dinner was served approximately 6 hours following dose on Day 1 or Day 8. A nighttime snack was permitted, and a standard breakfast and lunch were served prior to discharge from the clinic.
No food was allowed prior to dosing; water was consumed up to one hour before dosing and then only after one hour after dosing. Subjects assigned to Sequence A (fed/fasted) received a high-calorie and high-fat meal for lunch at 11:30 AM, as described in Table 1. Subjects receiving the high fat high calorie lunch completed the meal within 30 minutes. Dose was administered 30 minutes after the start of the meal. Subjects assigned to Sequence B (fasted/fed) continued to fast prior to dose. The staff mixed the contents of two (2) packets (approximately 21 g) with 8 oz of water. Subjects consumed the dose over 5 to 10 minutes.
Doses were administered 30 minutes after the start of the meal. Subjects assigned to Sequence B (fasted/fed) continued to fast prior to dose. The CRU mixed the contents of two (2) packets (approximately 21 g) with 8 oz of water. Subjects consumed the dose over 5 to 10 minutes.
A high-fat (approximately 50 percent of total caloric content of the meal) and high-calorie (approximately 800 to 1000 calories) meal was used. Blood samples were collected prior to dosing and at 10, 20, 30 and 60 minutes (within +/−3 minutes) and then at 2, 4, 6, 8, 10, 12, 16, 18, 20 and 24 hours (within +/−30 minutes) following dose.
An LC-MS/MS method for the determination of lactitol concentrations in human plasma has been successfully developed and validated. The calibration range of the method is 25.0 to 10,000 ng/ml for lactitol using a 50 μl sample aliquot.

Row | Compound | incidence of most common adverse reactions (nausea, diarrhea, headache, abdominal pain, abdominal distention, flatulence) [1] [%] | adverse events associated with administration [2] | fraction of an oral dose excreted in urine [3] [%] | calcium absorption [4] | rise in plasma glucose after ingestion [5] | % CV values for λz and λ1/2, fasted v. fed ([6]; fasted and fed conditions) | time of peak plasma concentration ([6]; fasted population) [h] | peak plasma concentration of lactitol ([6]; fasted population, approx. 21 g oral dose) [ng/mL] | average plasma concentration of lactitol ([6]; fasted population, hour 1, approx. 21 g oral dose) [ng/mL] | plasma concentration of lactitol ([6]; fasted population, hour 8) [ng/mL] | plasma concentration of lactitol ([6]; fasted population, hour 12 post-dose) [ng/mL] | plasma concentration of lactitol remained above ([6]; fasted population, until hour 8) | time of peak plasma concentration ([6]; fed population) [h] | peak plasma concentration of lactitol ([6]; fed population (dose 30 minutes after start of high-fat, high-calorie meal)) [ng/mL] | plasma concentration of lactitol ([6]; fed population, hour 8) [ng/mL] | plasma concentration of lactitol ([6]; fed population, hour 12 post-dose) [ng/mL] | AUC, fed population smaller than fasted population ([6]; fed v. fasted) [times] | peak concentration, fed compared with fasted population ([6]; fed v. fasted)
1 | CCCCC(F)(F)[C@@]1(O)CC[C@H]2[C@@H](CC(=O)[C@@H]2CCCCCCC(=O)O)O1 [Lubiprostone] | > 4 | – | – | – | – | – | – | – | – | – | – | – | – | – | – | – | – | –
2 | OC[C@@H](O)[C@@H](O[C@@H]1O[C@H](CO)[C@H](O)[C@H](O)[C@H]1O)[C@H](O)[C@@H](O)CO [lactitol] | – | flatulence, nausea, vomiting, abdominal cramping or pain and bloating | 0.6 | significant increase | no rise in plasma glucose | similar | 4 | 2412 | 1193 | 935 | 218 | above 1000 ng/mL | 4 | 738.25 | 387.93 | 124.16 | 10 | more than three times smaller
